From ChEMBL document CHEMBL4483862, “Open-source discovery of chemical leads for next-generation chemoprotective antimalarials” (2018) come the findings set out here.

The assay concerns Plasmodium berghei. Kind of assay: Luciferase/luciferin-expressing antifolate-resistant parasites were used to infect a culture of HepG2 cells that were pre-incubated with compounds. Infected hepatocytes emit light due to the luciferase reaction. Assay results are presented as the percent inhibition of light emission compared to control. […]. The format is functional. The following applies: sporozoite; for IC90: read-out: LUCIFERASE INFECTION ASSAY - IC90.

Setting [1] is: read-out: LUCIFERASE INFECTION ASSAY - IC50.

For orientation: IC50 means the point on the concentration scale where inhibition reaches its midpoint. Usually IC90 stands for the point of the concentration-response curve where the effect stands at 90%.

Molecules are shown by their SMILES.

In the case of `c1cc[n+](Cc2ccc(-c3nc4ccccc4s3)cc2)cc1`, the IC90 is 7.9 µM. In addition, the IC50 (PBLUC_HILL_SLOPE 1.53, PBLUC_R_SQUARED 0.36, read-out: LUCIFERASE INFECTION ASSAY - IC50) came out at 1.88 µM.
As for `CSc1sc(C(=O)OC2CCCCC2)c2c1C(=O)CC(C)(C)C2`, the 90% effect concentration (IC90) was greater than 9.36 µM. The IC50 (FFLUC_HILL_SLOPE 35.3, FFLUC_R_SQUARED 0.0335, read-out: LUCIFERASE INFECTION ASSAY - IC50) is greater than 9.36 µM.
For `NC(=O)c1ccc(-c2ccnc3n[nH]c(-c4cccc(F)c4)c23)cc1`, the IC90 worked out at 3.73 µM. Further, under “HEPG2TOX_HILL_SLOPE 2.67, HEPG2TOX_R_SQUARED 0.872, PBLUC_HILL_SLOPE 9.91, PBLUC_R_SQUARED 0.595, read-out: LUCIFERASE INFECTION ASSAY - IC50”, the IC50 amounted to 2.99 µM.
As for `NS(=O)(=O)c1ccc(CCNC(=O)COC(=O)c2ccc3[nH]c4c(c3c2)CCCC4)cc1`, the IC90 is greater than 10 µM. Under setting [1], the IC50 is greater than 10 µM.
For the compound `CCOC(=O)c1c(C)[nH]c(C(=O)Nc2cccc(C)n2)c1C`, the IC90 is greater than 10 µM. Moreover, the IC50 (PBLUC_HILL_SLOPE 0.344, PBLUC_R_SQUARED 0.589, read-out: LUCIFERASE INFECTION ASSAY - IC50) stood at 0.0971 µM.
In the case of `Cc1ccc(C)c(-n2c(SCCOc3ccccc3C)nnc2-c2ccccc2Cl)c1`, the IC90 is greater than 10 µM. Further, the IC50 (FFLUC_HILL_SLOPE 1.3, FFLUC_R_SQUARED 0.027, HEPG2TOX_HILL_SLOPE 7.63, HEPG2TOX_R_SQUARED 0.817, read-out: LUCIFERASE INFECTION ASSAY - IC50) is greater than 10 µM.
Consider `Cc1ccc(C(=O)NN(C)c2nc3ccccc3nc2C(F)(F)F)cc1`, for which the concentration for an effect of 90% (IC90) was 8.54 µM. The IC50 (HEPG2TOX_HILL_SLOPE 2.8, HEPG2TOX_R_SQUARED 0.955, PBLUC_HILL_SLOPE 3.11, PBLUC_R_SQUARED 0.656, read-out: LUCIFERASE INFECTION ASSAY - IC50) stood at 4.21 µM.
As to `COc1cc(-c2ccnc3n[nH]c(-c4ccccc4)c23)cc(OC)c1OC`, the 90% effect concentration (IC90) is greater than 10 µM. Also, the half-inhibitory concentration (IC50) under setting [1] was 3.13 µM.
Take `O=C(Nc1ccc(Cl)c(C(F)(F)F)c1)C(OC(=O)C12CC3CC(CC(C3)C1)C2)c1ccccc1` (configuration not stated): the IC90 was 9.6 µM. In addition, the IC50 (HEPG2TOX_HILL_SLOPE 10.4, HEPG2TOX_R_SQUARED 0.074, PBLUC_HILL_SLOPE 15.3, PBLUC_R_SQUARED 0.511, read-out: LUCIFERASE INFECTION ASSAY - IC50) worked out at 8.31 µM.
`CC(C)c1noc(COC(=O)c2ccc(-c3ccc(O)cc3)cc2)n1`: the IC90 was greater than 10 µM. Moreover, the IC50 under setting [1] is greater than 10 µM.
As for `O=C(Nc1cc(Cl)cc(Cl)c1)N1CCC(n2cccc2)CC1`, the IC90 was greater than 9.76 µM. Further, the IC50 under setting [1] was greater than 9.76 µM.
Take `CN(C)S(=O)(=O)c1cccc(C(=O)Nc2nc3ccc(Oc4ccccc4)cc3s2)c1`: the IC90 is greater than 10 µM. The IC50 (HEPG2TOX_HILL_SLOPE 15.9, HEPG2TOX_R_SQUARED 0.649, PBLUC_HILL_SLOPE 3.03, PBLUC_R_SQUARED 0.302, read-out: LUCIFERASE INFECTION ASSAY - IC50) turned out to be 5.87 µM.
On to `Cc1ccc(NC(=O)Cc2csc(NC(=O)C3CC3)n2)cc1Cl`, for which the IC90 is greater than 10 µM. Also, the half-maximal inhibitory concentration (IC50) (FFLUC_HILL_SLOPE 0.917, FFLUC_R_SQUARED 0.0768, HEPG2TOX_HILL_SLOPE 0.677, HEPG2TOX_R_SQUARED 0.444, PBLUC_HILL_SLOPE 1.82, PBLUC_R_SQUARED 0.301, read-out: LUCIFERASE INFECTION ASSAY - IC50) is greater than 10 µM.
Turning to `c1ccc(-c2nnc(-c3ccccn3)nc2-c2ccccc2)cc1`, the IC90 was found to be 4.22 µM. The 50% inhibitory concentration (IC50) (HEPG2TOX_HILL_SLOPE 3.54, HEPG2TOX_R_SQUARED 0.979, PBLUC_HILL_SLOPE 15.1, PBLUC_R_SQUARED 0.651, read-out: LUCIFERASE INFECTION ASSAY - IC50) worked out at 3.65 µM.
As for `COc1ccc(NS(=O)(=O)c2cc(NC(=O)c3cc(S(=O)(=O)Nc4ccc(Cl)cc4)ccc3Cl)ccc2N2CCOCC2)cc1`, the IC90 was greater than 10 µM. Moreover, under setting [1], the 50% inhibitory concentration (IC50) is greater than 10 µM.
Regarding `CCc1c(C)sc2nc(SCC3COc4ccccc4O3)n(-c3ccc(O)cc3C)c(=O)c12` (configuration not stated), the IC90 was greater than 10 µM. Moreover, the IC50 (FFLUC_HILL_SLOPE 1.97, FFLUC_R_SQUARED 0.841, read-out: LUCIFERASE INFECTION ASSAY - IC50) was greater than 10 µM.
Turning to `COc1cccc(N2C(C)=CC(=C(C#N)c3nc4ccccc4s3)C=C2C)c1`, the IC90 was greater than 10 µM. Further, the IC50 (FFLUC_HILL_SLOPE 12.5, FFLUC_R_SQUARED 0.607, HEPG2TOX_HILL_SLOPE 3.97, HEPG2TOX_R_SQUARED 0.941, PBLUC_HILL_SLOPE 8.86, PBLUC_R_SQUARED 0.0114, read-out: LUCIFERASE INFECTION ASSAY - IC50) is greater than 10 µM.
Regarding `Cc1cc(C(O)=C2Sc3ccccc3C2=O)c(C)n1C`, the IC90 is greater than 10 µM. Besides, the IC50 under setting [1] is greater than 10 µM.
Regarding `COCCN1C(=O)N(Cc2cccc(OC)c2)C(=O)C12CCN(C1CCc3ccccc3C1)CC2` (configuration not stated), the IC90 was greater than 6.91 µM. Further, where the note is “PBLUC_HILL_SLOPE 3.06, PBLUC_R_SQUARED 0.614, read-out: LUCIFERASE INFECTION ASSAY - IC50”, the half-maximal inhibitory concentration (IC50) is 4.45 µM.
For the compound `Cc1cc(Cl)ccc1OCCCc1nc2ccc(Cl)cc2[nH]1`, the IC90 is greater than 10 µM. The IC50 (PBLUC_HILL_SLOPE 2.8, PBLUC_R_SQUARED 0.541, read-out: LUCIFERASE INFECTION ASSAY - IC50) stood at 7.39 µM.
Turning to `CC(C(=O)Nc1ccc(O)cc1)c1ccc2c(c1)[nH]c1ccc(Cl)cc12` (configuration not stated), the IC90 was greater than 9.05 µM. The half-inhibitory concentration (IC50) under setting [1] was greater than 9.05 µM.
In the case of `CC(=O)Nc1cccc(-c2ccnc3c2CC(C)(C(=O)NCc2cccc(Cl)c2)O3)c1` (configuration not stated), the IC90 is greater than 7.57 µM. In addition, the IC50 (FFLUC_HILL_SLOPE 12.6, FFLUC_R_SQUARED 0.486, HEPG2TOX_HILL_SLOPE 12, HEPG2TOX_R_SQUARED 0.561, PBLUC_HILL_SLOPE 2.25, PBLUC_R_SQUARED 0.29, read-out: LUCIFERASE INFECTION ASSAY - IC50) is 4.2 µM.
Turning to `Cc1ccc2cc(COC(=O)c3cc4c(s3)CCC(C)C4)c(Cl)nc2c1` (configuration not stated), the concentration for an effect of 90% (IC90) is greater than 10 µM. Further, the IC50 under setting [1] was greater than 10 µM.
`CCCN(CC(=O)Nc1scc(-c2ccccc2)c1C(=O)OCC)Cc1nnc(-c2ccco2)o1`: the IC90 is greater than 10 µM. Besides, the half-maximal inhibitory concentration (IC50) under setting [1] was greater than 10 µM.
`O=C(c1oc2ccccc2c1CSc1ccc(Cl)cc1)N1CCCS/C1=N\c1ccccc1`: the concentration for an effect of 90% (IC90) is greater than 10 µM. Moreover, the IC50 (FFLUC_HILL_SLOPE 3.49, FFLUC_R_SQUARED 0.279, read-out: LUCIFERASE INFECTION ASSAY - IC50) was greater than 10 µM.
Take `Cc1ccc(-c2c(C)nn3c(=O)cc(C)[nH]c23)cc1`: the IC90 came out at 12.5 µM. For the same compound, the IC50 (HEPG2TOX_HILL_SLOPE 4.15, HEPG2TOX_R_SQUARED 0.53, PBLUC_HILL_SLOPE 4.03, PBLUC_R_SQUARED 0.493, read-out: LUCIFERASE INFECTION ASSAY - IC50) amounted to 7.24 µM.
Turning to `CCCn1nc(C(=O)NCC(c2ccc(OC)cc2)N2CCOCC2)c2ccccc2c1=O` (configuration not stated), the IC90 was greater than 10 µM. Moreover, the IC50 (HEPG2TOX_HILL_SLOPE 1.06, HEPG2TOX_R_SQUARED 0.0699, read-out: LUCIFERASE INFECTION ASSAY - IC50) is greater than 10 µM.
For the compound `O=C(NCc1ccccn1)c1nn(CCc2ccccc2)c2c1CN(Cc1ccc(F)cc1)CC2`, the IC90 was greater than 7.03 µM. Under “PBLUC_HILL_SLOPE 15.1, PBLUC_R_SQUARED 0.777, read-out: LUCIFERASE INFECTION ASSAY - IC50”, the IC50 came out at 6.49 µM.
Take `O=C(NC1CCN(C(=O)c2ccoc2)CC1)c1cccc2c3c([nH]c12)CCCCC3`: the IC90 was greater than 10 µM. Besides, the concentration for half-maximal inhibition (IC50) (PBLUC_HILL_SLOPE 15.4, PBLUC_R_SQUARED 0.491, read-out: LUCIFERASE INFECTION ASSAY - IC50) was determined as 9.35 µM.
For the compound `Cc1c(S(=O)(=O)c2ccc(Cl)cc2)csc1NC(=O)Nc1cc(C2CC2)n[nH]1`, the concentration for an effect of 90% (IC90) was greater than 7.55 µM. The IC50 (HEPG2TOX_HILL_SLOPE 0.224, HEPG2TOX_R_SQUARED 0.199, PBLUC_HILL_SLOPE 2.99, PBLUC_R_SQUARED 0.447, read-out: LUCIFERASE INFECTION ASSAY - IC50) worked out at 4.79 µM.
As for `CC(=O)c1ccc(N2CCN(Cc3ccc(C)s3)CC2)cc1`, the IC90 is greater than 10.5 µM. Besides, under setting [1], the IC50 is greater than 10.5 µM.
On to `CCN(C(=O)CN(Cc1ccccc1)S(=O)(=O)/C=C/c1ccccc1)c1cccc2ccccc12`, for which the IC90 was greater than 10 µM. The IC50 (HEPG2TOX_HILL_SLOPE 0.0751, HEPG2TOX_R_SQUARED 0.254, read-out: LUCIFERASE INFECTION ASSAY - IC50) is greater than 10 µM.
With `Cc1[nH]n(-c2cccc(C(F)(F)F)c2)c(=O)c1-c1cccc(Cl)c1`, the concentration for an effect of 90% (IC90) was greater than 9.36 µM. Moreover, for the setting “HEPG2TOX_HILL_SLOPE 5.8, HEPG2TOX_R_SQUARED 0.928, PBLUC_HILL_SLOPE 3.11, PBLUC_R_SQUARED 0.843, read-out: LUCIFERASE INFECTION ASSAY - IC50”, the 50% inhibitory concentration (IC50) is 6.26 µM.
For the compound `O=[N+]([O-])c1ccc(SCCO)c2nonc12`, the IC90 is 12.8 µM. The IC50 (HEPG2TOX_HILL_SLOPE 4.76, HEPG2TOX_R_SQUARED 0.8, PBLUC_HILL_SLOPE 15.1, PBLUC_R_SQUARED 0.318, read-out: LUCIFERASE INFECTION ASSAY - IC50) is 11 µM.
Consider `CCOC(=O)c1c(C)[nH]c(C(=O)C(C)OC(=O)c2ccc(S(=O)(=O)N(C)c3ccccc3OC)cc2)c1C` (configuration not stated), for which the IC90 is greater than 10 µM. Moreover, under “HEPG2TOX_HILL_SLOPE 113, HEPG2TOX_R_SQUARED 0.62, read-out: LUCIFERASE INFECTION ASSAY - IC50”, the IC50 was greater than 10 µM.
On to `Cc1cc(CN(Cc2ccc(C(=O)NC3CC3)cc2)Cc2ccco2)no1`, for which the IC90 is greater than 10 µM. The IC50 (PBLUC_HILL_SLOPE 2.47, PBLUC_R_SQUARED 0.284, read-out: LUCIFERASE INFECTION ASSAY - IC50) turned out to be 5.89 µM.
